Values of other authors, collected in patent publication US10136666B2, “Deep eutectic solvents and flavour generation” (NESTEC S.A., priority 2013, dated 2018).

Conditions: from literature values

For `NCCC(=O)O` [β-alanine], the “amount that would dissolve in 60 g water” value is listed as “about 33 g”.
